Assay results as given in US20180071354A1, “SELECTIVE BREEDING METHOD OF ANTITUMOR/ANTICANCER CAMELLIA SINENSIS STRAIN, AND TEA PRODUCT OF SUCH STRAIN” (FUJIAN AGRICULTURE AND FORESTRY UNIVERSITY, priority 2015, published 2018).

Test system: human prostate cancer cell line PC-3
Test: In vitro antitumor/anticancer testing (CCK-8), PC-3
Assay type: cell-based
Conditions: 48 h
Method: Each of Tea Product 1 and Conventional Tea Product obtained in section A of this example was used to prepare test tea samples according to the method described below. A proper amount of the respective tea product was added into sterile water to prepare a stock solution with a concentration of 100 mg/mL, followed by using a membrane filter with a pore size of 0.22 μm to conduct vacuum filtration and sterilization. The resulting stock solution was diluted with a respective complete medium shown in Table 3 below to form test tea samples with different concentrations. In other words, the thus obtained test tea samples to be used for treating a respective cancer/tumor cell line shown in Table 3 were prepared using the same complete medium as that for the respective cancer/tumor cell line.
Specifically, each of the aforesaid commercially available agents was subjected to the method described below to prepare comparative test samples. A proper amount of a respective commercially available agent was dissolved in phosphate-buffered saline (PBS) to prepare a stock solution with a concentration of 5 mg/mL, followed by using a membrane filter with a pore size of 0.22 μm to conduct vacuum filtration and sterilization. The resulting stock solution was diluted with a respective complete medium shown in Table 3 below to form comparative test samples with different concentrations. To be specific, the comparative test samples prepared from the respective commercially available agent have the concentrations shown in Table 2 below. The thus obtained comparative test samples to be used for treating a respective cancer/tumor cell line shown in Table 3 were prepared using the same complete medium as that for the respective cancer/tumor cell line.
The following cancer/tumor cells purchased from Chinese Academy of Sciences, Shanghai Institutes for Biological Sciences, Institute of Biochemistry and Cell Biology were used for in vitro antitumor/anticancer testing: human liver cancer cell line HepG2, human ovarian cancer cell line SK-OV-3, human cervical cancer cell line Hela, human lung cancer cell line A549, human glioblastoma cell line U-87MG, human mammary gland/duct cancer cell line BT-474, human prostate cancer cell line PC-3, human leukemia cell line HL-60, human gastric cancer cell line SMMC-7721, human colon cancer cell line HCT-116, human squamous cell carcinoma cell line A431, human leukemia cell line K562, human pancreatic cancer cell line PANC-1, and human gastric cancer cell line BGC-823.
The cultivation of each cancer/tumor cell line is described as follows. The cancer/tumor cancer cells were cultivated in the respective complete medium supplemented with 100 μg/mL penicillin and 100 μg/mL streptomycin in an incubator (37° C., 100% relative humidity, 5% CO2). When adherent cancer/tumor cells reached 80% confluence during the log-phase, cell detachment was conducted using 0.6 mL of 0.3% trypsin. Afterwards, a cell suspension having a cell density of 1.0×10^4 cells/mL was prepared. 100 μL of the cell suspension (i.e. 1000 cancer/tumor cells) was added into wells of a 96-well plate (Cat. No. 3599, Corning Costar), followed by cultivation in an incubator (37° C., 100% relative humidity, 5% CO2) for 24 hours.
As experimental groups, the tumor/cancer cells of each cell line were treated with the test tea samples prepared from one or more of the tea products and the comparative test samples prepared from one or more of the commercially available agents as obtained in section B of this example (for more detailed information about the tea product(s) and the commercially available product (s) used to treat each cell line, please see Table 4 below). To be specific, 6 to 10 test tea samples prepared from the same tea product and having different concentrations, as well as 6 to 10 comparative test samples prepared from the same commercially available agent and having different concentrations, were utilized to treat the tumor/cancer cells of each cell line. […]

Work on `O=C(O[C@@H]1Cc2c(O)cc(O)cc2O[C@@H]1c1cc(O)c(O)c(O)c1)c1cc(O)c(O)c(O)c1` [EGCG monomer, epigallocatechin gallate] yielded a Percent growth inhibition (2.5 μg/mL) of 16.69%, a Percent growth inhibition (7 μg/mL) of 19.10% and a Percent growth inhibition (10 μg/mL) of 19.64%. It also gave a Percent growth inhibition (20 μg/mL) of 26.03%, a Percent growth inhibition (40 μg/mL) of 40.11% and a Percent growth inhibition (80 μg/mL) of 74.43%. The Percent growth inhibition (160 μg/mL) was 86.71%, the Percent growth inhibition (320 μg/mL) was 96.31% and the Percent growth inhibition (640 μg/mL) was 92.53%. For the same molecule, the IC50 (PC-3) was “IC50 (μg/mL) = 39.51”.
